Measurements taken from ChEMBL document CHEMBL1156048, “Design and optimisation of selective serotonin re-uptake inhibitors with high synthetic accessibility: part 2” (Bioorg Med Chem Lett, 2009).

Key:
Type in all cases: cell-based
[1] = molecular target: Sodium-dependent noradrenaline transporter (Homo sapiens, UniProt P23975); assay: Inhibition of noradrenaline reuptake at human noradrenaline transporter expressed in HEK293 cells after 15 mins by scintillation counting
[2] = molecular target: Sodium-dependent dopamine transporter (Homo sapiens, UniProt Q01959); assay: Inhibition of dopamine reuptake at human dopamine transporter expressed in HEK293 cells after 5 mins by scintillation counting
[3] = molecular target: Sodium-dependent serotonin transporter (Homo sapiens, UniProt P31645); assay: Inhibition of serotonin reuptake at human serotonin transporter expressed in HEK293 cells after 5 mins by scintillation counting
[4] = molecular target: Voltage-gated inwardly rectifying potassium channel KCNH2 (Homo sapiens, UniProt Q12809); assay: Displacement of [3H]dofetilide from human ERG expressed in HEK293 cells
Sequence of Voltage-gated inwardly rectifying potassium channel KCNH2 (Q12809 whole entry): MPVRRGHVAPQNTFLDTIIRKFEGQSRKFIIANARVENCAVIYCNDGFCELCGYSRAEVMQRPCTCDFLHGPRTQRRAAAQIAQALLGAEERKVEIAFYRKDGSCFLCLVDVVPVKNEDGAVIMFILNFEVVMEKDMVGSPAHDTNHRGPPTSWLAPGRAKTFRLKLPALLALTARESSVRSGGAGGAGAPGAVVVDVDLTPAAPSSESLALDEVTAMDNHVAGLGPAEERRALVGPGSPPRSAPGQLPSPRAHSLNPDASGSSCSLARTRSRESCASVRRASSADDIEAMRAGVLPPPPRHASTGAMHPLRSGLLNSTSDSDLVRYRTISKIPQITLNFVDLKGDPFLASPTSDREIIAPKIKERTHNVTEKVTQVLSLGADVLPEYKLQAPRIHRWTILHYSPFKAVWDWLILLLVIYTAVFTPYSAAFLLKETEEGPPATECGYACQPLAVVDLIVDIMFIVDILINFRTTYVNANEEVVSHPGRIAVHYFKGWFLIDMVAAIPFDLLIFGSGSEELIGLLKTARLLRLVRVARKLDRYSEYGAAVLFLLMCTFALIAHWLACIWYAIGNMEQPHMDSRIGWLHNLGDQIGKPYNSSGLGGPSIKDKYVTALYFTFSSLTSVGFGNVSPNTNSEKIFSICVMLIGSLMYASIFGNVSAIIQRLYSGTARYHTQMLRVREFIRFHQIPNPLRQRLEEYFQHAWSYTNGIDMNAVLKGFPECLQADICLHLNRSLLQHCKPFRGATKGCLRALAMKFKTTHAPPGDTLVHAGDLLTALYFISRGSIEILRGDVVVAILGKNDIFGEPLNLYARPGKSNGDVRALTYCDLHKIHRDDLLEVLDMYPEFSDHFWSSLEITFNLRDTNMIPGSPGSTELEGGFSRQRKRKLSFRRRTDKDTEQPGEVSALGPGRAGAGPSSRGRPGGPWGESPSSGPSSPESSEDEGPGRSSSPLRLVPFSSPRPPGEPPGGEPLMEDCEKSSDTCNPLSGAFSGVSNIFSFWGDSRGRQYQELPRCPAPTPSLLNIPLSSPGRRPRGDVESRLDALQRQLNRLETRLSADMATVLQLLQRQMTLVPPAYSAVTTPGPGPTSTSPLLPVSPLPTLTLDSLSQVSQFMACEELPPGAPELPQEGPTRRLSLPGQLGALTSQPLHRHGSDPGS

Sequence of Sodium-dependent dopamine transporter (Q01959 whole entry): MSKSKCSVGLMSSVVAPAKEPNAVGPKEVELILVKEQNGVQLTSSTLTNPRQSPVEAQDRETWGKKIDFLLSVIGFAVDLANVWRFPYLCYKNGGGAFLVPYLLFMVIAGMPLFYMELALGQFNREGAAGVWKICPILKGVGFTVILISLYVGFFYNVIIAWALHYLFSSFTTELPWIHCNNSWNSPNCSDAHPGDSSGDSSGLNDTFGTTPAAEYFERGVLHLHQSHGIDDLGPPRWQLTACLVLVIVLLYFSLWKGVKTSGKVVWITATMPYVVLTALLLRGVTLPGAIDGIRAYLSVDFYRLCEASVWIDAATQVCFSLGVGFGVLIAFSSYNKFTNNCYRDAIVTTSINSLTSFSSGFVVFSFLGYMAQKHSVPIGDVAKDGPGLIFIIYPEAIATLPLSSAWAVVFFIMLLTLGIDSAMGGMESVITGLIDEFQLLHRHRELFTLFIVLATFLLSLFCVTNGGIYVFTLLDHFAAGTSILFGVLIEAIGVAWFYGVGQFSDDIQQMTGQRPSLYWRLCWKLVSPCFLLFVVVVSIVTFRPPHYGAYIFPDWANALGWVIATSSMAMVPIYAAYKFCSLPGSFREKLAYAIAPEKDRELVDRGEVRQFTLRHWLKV
Sequence of Sodium-dependent serotonin transporter (P31645 whole entry): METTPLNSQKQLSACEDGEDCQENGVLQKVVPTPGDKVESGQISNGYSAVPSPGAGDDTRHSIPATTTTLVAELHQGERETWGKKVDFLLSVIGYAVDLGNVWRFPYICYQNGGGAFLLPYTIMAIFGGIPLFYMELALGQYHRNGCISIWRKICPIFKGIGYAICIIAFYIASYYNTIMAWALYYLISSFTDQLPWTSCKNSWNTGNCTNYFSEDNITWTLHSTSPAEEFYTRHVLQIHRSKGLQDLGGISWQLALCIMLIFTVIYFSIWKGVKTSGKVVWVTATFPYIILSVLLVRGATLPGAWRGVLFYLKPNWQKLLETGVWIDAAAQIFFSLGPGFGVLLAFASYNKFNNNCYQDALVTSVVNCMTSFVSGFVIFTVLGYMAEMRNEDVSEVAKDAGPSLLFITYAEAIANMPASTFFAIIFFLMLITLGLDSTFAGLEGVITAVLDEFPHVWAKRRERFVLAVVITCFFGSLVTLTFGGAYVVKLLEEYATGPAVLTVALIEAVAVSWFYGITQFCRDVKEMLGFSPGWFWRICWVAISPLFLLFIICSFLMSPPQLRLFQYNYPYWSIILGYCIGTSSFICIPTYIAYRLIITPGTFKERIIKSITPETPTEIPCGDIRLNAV
Sequence of Sodium-dependent noradrenaline transporter (P23975 whole entry): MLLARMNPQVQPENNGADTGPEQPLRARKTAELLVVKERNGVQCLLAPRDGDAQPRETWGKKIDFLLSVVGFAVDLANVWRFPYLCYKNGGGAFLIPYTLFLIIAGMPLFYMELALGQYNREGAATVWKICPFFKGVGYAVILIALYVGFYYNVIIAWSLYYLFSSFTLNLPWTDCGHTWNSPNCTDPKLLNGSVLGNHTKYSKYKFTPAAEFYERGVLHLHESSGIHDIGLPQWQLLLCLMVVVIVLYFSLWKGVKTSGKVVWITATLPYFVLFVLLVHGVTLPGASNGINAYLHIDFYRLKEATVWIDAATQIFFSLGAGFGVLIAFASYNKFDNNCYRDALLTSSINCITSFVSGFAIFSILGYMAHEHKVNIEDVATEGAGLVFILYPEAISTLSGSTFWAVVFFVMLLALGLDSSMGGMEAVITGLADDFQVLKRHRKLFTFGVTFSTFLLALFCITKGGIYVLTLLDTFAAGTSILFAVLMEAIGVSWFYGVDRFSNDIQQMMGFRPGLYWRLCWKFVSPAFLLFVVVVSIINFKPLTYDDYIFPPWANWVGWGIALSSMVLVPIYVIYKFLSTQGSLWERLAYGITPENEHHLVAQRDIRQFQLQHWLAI

Row | Compound | IC50 [1] | IC50 [2] | IC50 [3] | Ki [4]
1 | CCCN(C(=O)c1ccc2ccccc2c1)C1CCNCC1 | > 40000 nM | > 40000 nM | 28.3 nM | –
2 | CC(C)N(C(=O)c1ccc2ccccc2c1)[C@@H]1CCNC1 | 7500 nM | > 14000 nM | 15 nM | –
3 | Cc1c(C(=O)N(CC(C)(C)C)[C@H]2CCNC2)ccc(Cl)c1Cl | 357 nM | > 28000 nM | 15 nM | –
4 | CS(=O)(=O)N(Cc1ccc2ccccc2c1)[C@@H]1CCNC1 | 7000 nM | > 68000 nM | 17 nM | 4200 nM
5 | CCC(=O)N(Cc1ccc2ccccc2c1)C1CCNCC1 | 1300 nM | 339 nM | 1 nM | 12000 nM
6 | c1cnc(N(Cc2ccc3ccccc3c2)C2CCNCC2)nc1 | 1200 nM | 1300 nM | 10 nM | –
7 | CN(C(=O)c1ccc(Cl)c(Cl)c1)[C@@H]1CCNC1 | – | – | > 400 nM | –
8 | CC(=O)N(Cc1ccc2ccccc2c1)C1CCNCC1 | 8900 nM | 1500 nM | 4.5 nM | > 20000 nM
9 | CCN(C(=O)c1ccc(Cl)c(Cl)c1C)[C@@H]1CCNC1 | 17400 nM | > 40000 nM | 10 nM | –
10 | O=C(NC1CCNCC1)c1ccc2ccccc2c1 | – | – | > 400 nM | –
11 | CC(C)CN(C(=O)c1ccc2ccccc2c1)[C@@H]1CCNC1 | 1200 nM | – | 5 nM | 7000 nM
12 | CC(=O)N(Cc1ccc2ccccc2c1)[C@@H]1CCNC1 | 726 nM | > 12000 nM | 5.2 nM | –
13 | c1ccc2cc(COC3CCNCC3)ccc2c1 [LITOXETINE] | 1400 nM | 6700 nM | 5.9 nM | –

Continued, in another order:

Row | IC50 [1] | IC50 [2] | IC50 [3] | Compound | Ki [4]
14 | 677 nM | 7400 nM | 12 nM | O=C(c1ccc2ccccc2c1)N(C1CCCC1)[C@@H]1CCNC1 | –
15 | 5700 nM | > 40000 nM | 7 nM | Cc1c(C(=O)N(C(C)C)[C@@H]2CCNC2)ccc(Cl)c1Cl | –
16 | 24 nM | 744 nM | 3 nM | CC(C)CN(C(=O)c1ccc2ccccc2c1)[C@H]1CCNC1 | –
17 | 370 nM | 2800 nM | 3.5 nM | CS(=O)(=O)N(Cc1ccc2ccccc2c1)[C@H]1CCNC1 | 11000 nM
18 | – | – | 58 nM | Cc1c(C(=O)N(C)[C@@H]2CCNC2)ccc(Cl)c1Cl | –
19 | 2500 nM | 4900 nM | 3.5 nM | CS(=O)(=O)N(Cc1ccc2ccccc2c1)C1CCNCC1 | 3200 nM
20 | 6000 nM | 5800 nM | 9 nM | O=C(c1ccc2ccccc2c1)N(C1CCC1)[C@@H]1CCNC1 | –
21 | 224 nM | 266 nM | 2.4 nM | CCC(=O)N(Cc1ccc2ccccc2c1)[C@@H]1CCNC1 | –
22 | 735 nM | > 28000 nM | 4.6 nM | Cc1c(CN([C@@H]2CCNC2)S(C)(=O)=O)ccc2cc(F)ccc12 | 1600 nM
23 | > 40000 nM | > 40000 nM | 10 nM | O=C(c1ccc2ccccc2c1)N(C1CCC1)C1CCNCC1 | > 10000 nM
